Results: patent US20250171434A1, “SEC61 INHIBITORS AND USE THEREOF” (KEZAR LIFE SCIENCES, INC., priority 2022, published 2025)
pEC50, pIC50: −log10 of the molar value.

Tests used:
[1] = system: PD1-ss+10aa/Gaussia Luciferase; experiment: Dox-Induced PD1-ss-Gluc Assay; assay type: cell-based; conditions: Flp-In 293 T-REx cells, 24 hours with doxycycline; Table 1; read-out: 24 hr Dox Inducible PD1ssGluc 293FRT/TO: Mean IC50
Excerpt: Flp-In 293 T-REx™ cells were transfected with pcDNA™5/FRT/TO plasmid inserted with cDNA encoding Gaussia Luciferase fused to the 3′ end of cDNA encoding PD1 signal sequence plus 10 amino acids (N-[…]-C) (SEQ ID NO: 1). Transfected cells were selected for resistance to the selectable markers Hygromycin and Blasticidin to create a stable cell line that contained the PD1-ss+10aa/Gaussia Luciferase cDNA insert whose expression was regulated under the T-REx™ system. The day before assay, cells were trypsinized and plated in 384-well tissue culture plates. The next day, compound dilutions in DMSO/media containing doxycycline were added to the wells and incubated at 37° C., 5% CO2.
(§1) For chemical structures that include one or more stereoisomers, but are illustrated without indicating stereochemistry, the assay data refers to a mixture of stereoisomers.

[2] = system: IL-2-FL/Gaussia Luciferase; experiment: Dox Inducible IL2-FL-Gluc Assay; assay type: cell-based; conditions: Table 1; for pIC50: read-out: 24 hr Dox Inducible IL2FLGluc 293FRT/TO: Mean IC50; for 24 hr Dox Inducible IL2FLGluc 293FRT/TO: IL2/PD1: ratio of IC50s IL2/PD1
Excerpt: Flp-In 293 T-REx™ cells were transfected with pcDNA™5/FRT/TO plasmid inserted with cDNA encoding Gaussia Luciferase fused to the 3′ end of cDNA encoding full length IL-2 (amino acids 1-153). Transfected cells were selected for resistance to the selectable markers Hygromycin and Blasticidin to create a stable cell line that contained the IL-2-FL/Gaussia Luciferase cDNA insert whose expression was regulated under the T-REx™ system. The day before assay, cells were trypsinized and plated in 384-well tissue culture plates. The next day, compound dilutions in DMSO/media containing doxycycline were added to the wells and incubated at 37° C., 5% CO2.
as §1

[3] = system: CD47(ss + 10)Gluc; experiment: Dox-Induced CD47-ss-Gluc Assay; assay type: cell-based; conditions: Flp-In 293 T-REx cells, 24 hours with doxycycline; Table 1; read-out: 24 hr Dox Inducible CD47(ss + 10)Gluc 293FRT/TO: Mean IC50
[4] = system: IL6R-ss+10aa/Gaussia Luciferase; experiment: Dox-induced IL-6R-ss-Gluc Assay; assay type: cell-based; conditions: Table 1; for pIC50: Flp-In 293 T-REx cells, 24 hours with doxycycline, read-out: 24hr Dox Inducible IL6R(ss + 10)Gluc 293FRT/TO: Mean IC50; for 24hr Dox Inducible IL6R(ss + 10)Gluc 293FRT/TO: IL6R/PD1: ratio of IC50s IL6R/PD1
Excerpt: Flp-In 293 T-REx™ cells were transfected with pcDNATM5/FRT/TO plasmid inserted with cDNA encoding Gaussia Luciferase fused to the 3′ end of cDNA encoding IL6R signal sequence plus 10 amino acids (N-[…]-C). Transfected cells were selected for resistance to the selectable markers Hygromycin and Blasticidin to create a stable cell line that contained the IL6R-ss+10aa/Gaussia Luciferase cDNA insert whose expression was regulated under the T-REx™ system. The day before assay, cells were trypsinized and plated in 384-well tissue culture plates. The next day, compound dilutions in DMSO/media containing doxycycline were added to the wells and incubated at 37° C., 5% CO2.
as §1

[5] = system: multiple myeloma cell line NCI-H929; experiment: H929 Cell Viability Assay; assay type: cell-based, human; conditions: NCI-H929 cells, 48 hours, Celltiter-Glo; for pEC50: Homo sapiens, read-out: 48 hr H929 Viability Celltiter-Glo: Mean EC50
Experimental: The human multiple myeloma cell line NCI-H929 was cultured in Advanced RPMI 1640 media (Gibco®) supplemented with 6% fetal bovine serum, 2 mM Glutamine, and 1× Penicillin/Streptomycin. On the day of assay, cells were resuspended in RPMI 1640 media supplemented with 10% fetal bovine serum, 2 mM Glutamine, and 1× Penicillin/Streptomycin and plated in 384-well tissue culture plates and treated with compound dilutions in DMSO/media. Plates were incubated at 37° C., 5% CO2 for 48 hours. After 48 hours, Celltiter-Glo® (Promega) was added to each well and luciferase signal was quantified using Tecan Infinite M1000 Pro for cell viability determination.
as §1

[6] = system: multiple myeloma cell line U266B1; experiment: U266 Cell Viability Assay; assay type: cell-based; conditions: Homo sapiens, U-266; U266B1 cells, 48 hours, Celltiter-Glo; read-out: 48 hr U266 Viability Celltiter-Glo: Mean EC50
Experimental: The human multiple myeloma cell line U266B1 was cultured in RPMI 1640 media supplemented with 10% fetal bovine serum, 2 mM Glutamine, and 1× Penicillin/Streptomycin. Cells were plated in 384-well tissue culture plates and treated with compound dilutions in DMSO/media. Plates were incubated at 37° C., 5% CO2 for 48 hours. After 48 hours, Celltiter-Glo® (Promega) was added to each well and luciferase signal was quantified using Tecan Infinite M1000 Pro for cell viability determination.
as §1

[7] = Liver Microsome Stability Assay, mouse; assay type: in vitro ADME; conditions: mouse liver microsomes 1.0 mg/mL, 1.0 uM compound, 37° C., 1 mM NADPH
Experimental: (§2) Stability of a compound was assessed in the presence of liver microsomes from various sources—mouse, rat, monkey and human liver microsomes. 1.0 uM compound, 0.4% DMSO in 0.1 M Potassium Phosphate with 1.0 mg/mL liver microsomes, were incubated at 37° C. with or without 1 mM NADPH. The samples were quenched at 0, and 30 minutes.

[8] = Liver Microsome Stability Assay, rat; assay type: in vitro ADME; conditions: rat liver microsomes 1.0 mg/mL, 1.0 uM compound, 37° C., 1 mM NADPH
Experimental: as §2

[9] = Liver Microsome Stability Assay, monkey; assay type: in vitro ADME; conditions: monkey liver microsomes 1.0 mg/mL, 1.0 uM compound, 37° C., 1 mM NADPH
Experimental: as §2

[10] = Liver Microsome Stability Assay, human; assay type: in vitro ADME; conditions: human liver microsomes 1.0 mg/mL, 1.0 uM compound, 37° C., 1 mM NADPH
Experimental: as §2

[11] = Flp-In 293 T-REx cells, 24 hours with doxycycline

Row | SMILES | pIC50 [1] | pIC50 [2, 11] | pIC50 [3] | pIC50 [4] | pEC50 [5] | pEC50 [6] | Liver Microsome Stability (Multiple Species): Mouse - % Remaining after 30 min w/ NADPH (%) [7] | Liver Microsome Stability (Multiple Species): Rat - % Remaining after 30 min w/ NADPH (%) [8] | Liver Microsome Stability (Multiple Species): Monkey - % Remaining after 30 min w/ NADPH (%) [9] | Liver Microsome Stability (Multiple Species): Human - % Remaining after 30 min w/ NADPH (%) [10] | 48 hr H929 Viability Celltiter-Glo: Mean EC50 (nM) [5] | 24 hr Dox Inducible IL2FLGluc 293FRT/TO: Mean IC50 (nM) [2, 11] | 24 hr Dox Inducible IL2FLGluc 293FRT/TO: IL2/PD1 [2] | 24hr Dox Inducible IL6R(ss + 10)Gluc 293FRT/TO: IL6R/PD1 [4]
1 | N#Cc1c(/C=C/c2csc(NC(=O)c3cc(Cl)cn3Cc3ccnc(F)c3)n2)ncn1C1CC1 [Compound A28, (E)-4-chloro-N-(4-(2-(5-cyano-1-cyclopropyl-1H-imidazol-4-yl)vinyl)thiazol-2-yl)-1-((2-fluoropyridin-4-yl)methyl)-1H-pyrrole-2-carboxamide] | 7.66 | 5.82 | 5.85 | 5.83 | < 4.60 | 4.81 | 67% | 2% | 9% | 22% |  |  | 69.0 | 68
2 | CC(C)n1cnc(/C=C/c2csc(NC(=O)c3cc(OC(F)F)cn3Cc3ccnc(F)c3)n2)c1Cl [Compound A7, (E)-N-(4-(2-(5-chloro-1-isopropyl-1H-imidazol-4-yl)vinyl)thiazol-2-yl)-4-(difluoromethoxy)-1-((2-fluoropyridin-4-yl)methyl)-1H-pyrrole-2-carboxamide] | 7.85 | 5.57 | 5.68 | 5.61 | 4.71 | < 4.60 | 82% | 84% | 55% | 64% |  |  | 200 | 176
3 | O=C(Nc1nc(/C=C/c2ccc3occc3c2)cs1)c1cccn1Cc1ccnc(F)c1 [Compound B27, (E)-N-(4-(2-(benzofuran-5-yl)vinyl)thiazol-2-yl)-1-((2-fluoropyridin-4-yl)methyl)-1H-pyrrole-2-carboxamide] | 6.84 | 5.98 | 5.99 | 6.05 | < 4.60 | < 4.60 | 40% | 3% | 8% | 27% |  |  | 5.2 | 6

Second part, led by results:

Row | pIC50 [1] | pIC50 [2, 11] | pIC50 [3] | pIC50 [4] | pEC50 [5] | pEC50 [6] | Liver Microsome Stability (Multiple Species): Mouse - % Remaining after 30 min w/ NADPH (%) [7] | Liver Microsome Stability (Multiple Species): Rat - % Remaining after 30 min w/ NADPH (%) [8] | Liver Microsome Stability (Multiple Species): Monkey - % Remaining after 30 min w/ NADPH (%) [9] | Liver Microsome Stability (Multiple Species): Human - % Remaining after 30 min w/ NADPH (%) [10] | 48 hr H929 Viability Celltiter-Glo: Mean EC50 (nM) [5] | 24 hr Dox Inducible IL2FLGluc 293FRT/TO: Mean IC50 (nM) [2, 11] | SMILES | 24 hr Dox Inducible IL2FLGluc 293FRT/TO: IL2/PD1 [2] | 24hr Dox Inducible IL6R(ss + 10)Gluc 293FRT/TO: IL6R/PD1 [4]
4 | 8.22 | 5.53 | 5.49 | 5.68 |  | < 4.60 | 100% | 55% | 57% | 73% | I.A |  | O=C(Nc1nc(/C=C/c2ncn(C3CC3)c2Cl)cs1)c1cc(OC(F)F)cn1Cc1ccnc(F)c1 [Compound A15, (E)-N-(4-(2-(5-chloro-1-cyclopropyl-1H-imidazol-4-yl)vinyl)thiazol-2-yl)-4-(difluoromethoxy)-1-((2-fluoropyridin-4-yl)methyl)-1H-pyrrole-2-carboxamide] | 490 | 345
5 | 8.22 | 5.54 | 5.55 | 5.67 | < 4.60 | < 4.60 | 81% | 56% | 58% | 83% |  |  | [2H]C([2H])(c1ccnc(F)c1)n1cc(OC(F)F)cc1C(=O)Nc1nc(/C=C/c2ncn(C3CC3)c2Cl)cs1 [Compound A16, (E)-N-(4-(2-(5-chloro-1-cyclopropyl-1H-imidazol-4-yl)vinyl)thiazol-2-yl)-4-(difluoromethoxy)-1-((2-fluoropyridin-4-yl)methyl-d2)-1H-pyrrole-2-carboxamide] | 460 | 339
6 | 8.00 |  | 5.51 | 5.71 | < 4.60 | < 4.60 | 27% | 5% | 2% | 1% |  | I.A | O=C(Nc1nc(/C=C/c2ncn(C3CC3)c2Cl)cs1)c1cc(SC(F)F)cn1Cc1ccnc(F)c1 [Compound A32, (E)-N-(4-(2-(5-chloro-1-cyclopropyl-1H-imidazol-4-yl)vinyl)thiazol-2-yl)-4-((difluoromethyl)thio)-1-((2-fluoropyridin-4-yl)methyl)-1H-pyrrole-2-carboxamide] | >2400 | 187
